Experiments:
[1] = system: human mesenchymal stem cells (hMSC); assay: Cytotoxicity by MTT assay; assay type: cell-based; parameters: dose or concentration left out as unconfirmed; conditions: 24, 48, and 72 hours, FIG. 5
Method: In order to confirm whether or not cell proliferation is affected by potential toxicity when the cell permeable peptide-bone differentiation inducing sequence conjugate and control domains are cultured with hMSC, a 3-[4,5-dimethylthiazo-2-yl]-2,5-diphenyl tetrazolium bromide thiazolyl blue (MTT) assay method was used.
The MTT assay method is a method for measuring cytotoxicity by measuring absorbance of formazan produced as mitochondrial dehydrogenases in alive and metabolically active cells reduces MTT to indicate the absorbance as a percentage based on the control group. In this case, the measured absorbance reflects a concentration of the alive and metabolically active cells. 2,3,5-triphenyl tetrazolium chloride (TTC) is reduced to formazan in live cells. The formazan is insoluble purple color, and a respiration rate may be measured by a degree of color. The absorbance of formazan is maximal at 540 nm, and the absorbance measured at this wavelength reflects the concentration of the alive and metabolically active cells. Since a linear relationship between the absorbance and the concentration of the cells is not established when a concentration of cells in well to be measured is excessively high or low, a process of determining an optimal concentration of the cells was performed. […]

[2] = system: human mesenchymal stem cells (hMSC); assay: Cytotoxicity / cell proliferation by quantitative BrdU assay; assay type: cell-based; parameters: dose or concentration left out as unconfirmed; conditions: 24, 48, and 72 hours, FIG. 6
Method: In order to confirm whether or not cell proliferation is affected by potential toxicity when the cell permeable peptide-bone differentiation inducing sequence conjugate and control domains are cultured with hMSC, a degree of cell proliferation was analysis by ELISA using BrdU. Since BrdU was introduced in chromosome instead of deoxy thymidine triphosphate (dTTP) at the time of DNA replication during a proliferation process of hMSC, a degree of introduction of BrdU may reflect a degree of proliferation of hMSC.
First, After 1×10^3 human Mesenchymal Stem cells (hMSC) were plated into each well of 96-well plate, the degree of introduction of BrdU, that is, the degree of proliferation of hMSC was measured using a cell proliferation ELISA kit (BrdU (colorimetry); Boehringermanheim, Germany). Simply describing this method, the cells were treated with the cell permeable peptide-bone differentiation inducing sequence conjugate synthesized by the method in Example 1 and the domains of Example 2 at a concentration of […] and cultured in medium for forming hard tissue for 24, 48, and 72 hours. […] of BrdU (5-bromo-2′-deoxyuridine) was added to each of the groups before 24 hours of each culture time and further cultured for 24 hours. […] The reaction was terminated by 1N H2SO4, and then absorbance was measured using the ELISA reader (Bio-Tek, USA) at 450 nm.

[3] = system: Smad1/5/8 phosphorylation, RUNX2; assay: Western blot of signal transduction proteins in cytoplasmic and nuclear fractions; assay type: cell-based, human; conditions: 10 μm, 1.5 hours, hMSC, compared with PBS; FIG. 4D
Method: In order to confirm cell differentiation ability of the cell permeable peptide-bone differentiation inducing sequence conjugate, using proteins serving an important role in signal transduction pathways in the cytoplasmic fraction and the nuclear fraction, human mesenchymal stem cells (hMSC) were seeded in each well of a 10 cm-dish at 1×10^6/well, and then incubated in a general medium for 20 hours (overnight) for cell stabilization. After 20 hours of the incubation, the cells were treated with the cell permeable peptide-bone differentiation inducing sequence conjugate and the bone differentiation inducing sequence of Comparative Example 2 of 10 μm for each for 1.5 hours.
After that, in order to compare the expression degree of intercellular protein, in each of the cells treated with the cell permeable peptide-bone differentiation inducing sequence conjugate of Example 1 and the bone differentiation inducing sequence of Comparative Example 2, cytoplasm and nucleus were separated using NE-PER nuclear and cytoplasmic extraction reagents according to the manufacturer's instructions (Pierce, USA). The protein in the hMSC lysis solution containing the separated cytoplasm and nucleus was determined by Bradford's assay, and then subjected to electrophoresis using 10% polyacrylamide gel at 120 volts for 4 hours. […]

[4] = system: human mesenchymal stem cells (hMSC); assay: Cell differentiation ability by alkaline phosphatase (ALP) staining; assay type: cell-based; parameters: dose or concentration left out as unconfirmed; conditions: hard tissue-forming medium, 14 days, compared with PBS; FIG. 4A d-f
Method: In order to detect alkaline phosphate (ALP), which is a label material shown at the initial stage of bone differentiation, for cell differentiation ability of the cell permeable peptide-bone differentiation inducing sequence conjugate, human mesenchymal stem cells (hMSC) were seeded in a 24-well plate at 1×10^3/well, and then treated with the cell permeable peptide-bone differentiation inducing sequence conjugate synthesized from Example 1 and the bone differentiation inducing sequence of Comparative Example 2 of […] for each, and then incubated in a hard tissue forming medium for 14 days. The hard tissue-forming medium contained an MSCBM medium containing 15% FBS (fetal bovine serum), […] of L-ascorbic acid, 10^−7 M dexamethasone, 1% antibiotic-antimycotic solution, and 10 mM beta-glycerol phosphate. After completion of the incubation, the medium was removed, and then the cells were washed with phosphate buffer solution (PBS) twice. The cells were fixed with 10% NBF at room temperature for 20 minutes, and then washed with a phosphate buffer solution (PBS) twice. Then, staining was conducted using the Alkaline phosphatase detection kit (Millipore, USA) by the experiment method recommended by the manufacture.

## NH2-GAPPPADSAP-SSRKKNPNCRRH-C-COONH2 (H-GAPPPADSAPSSRKKNPNCRRHC-NH2; cysteine pairing not given here) [Example 1]
[1]
  cytotoxicity (MTT, cell proliferation ability compared with PBS): did not exhibit cytotoxicity
[2]
  effect on cell proliferation (BrdU, DNA synthesis ability compared with PBS): did not affect the cell proliferation
[3]
  RUNX2 in the nucleus (western blot): noticeably increased RUNX2
  phosphorylation of Smad1/5/8 (western blot): exhibited Smad 1/5/8 phosphorylation
[4]
  differentiation into osteoblast, alkaline phosphatase staining: relatively strong staining degree of alkaline phosphatase

— patent publication US9023987B2, “Cell-permeable peptide” (Seoul National University R&DB Foundation, priority 2010, dated 2015)
